Measurements published in PubChem BioAssay AID2060891 (Molecular Pharmacology Branch, DTP, NCI, 2025).

Tested on: K98450-129-R-PDC complex spheroid growth, percent test/control
Assay: Anticancer human tumor K98450-129-R-PDC patient-derived colon adenocarcinoma cell line growth inhibition [RAS]
Settings: for viability, T/C: stronger effect = lower value
Procedure, shortened: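 Agents were tested in combination matrices in half-log decrements from a top concentration at or near clinical Cmax (10 microM if undetermined). Targets were multi-cell spheroids of tumour lines plus HUVEC and MSC stromal cells.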
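Also: spheroids exposed to agents for seven days before the viability readout.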
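For viability, T/C in this document: luminescence used as a proxy for viable cell amount.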

Compound `CC1(O)CCCC1n1c(=O)c(C(F)F)cc2cnc(NC3CCN(S(C)(=O)=O)CC3)nc21` (stereo unspecified) + C=CC(=O)N1CCN(c2nc(OCC3CCCN3C)nc3c(F)c(-c4nc(N)cc(C)c4C(F)(F)F)c(Cl)cc23)C(C)C1 has an IC50 (curve of first compound, second compound 0.00316 µM) of 8350 nM, an IC50 (curve of first compound, second compound 0.01 µM) of 2760 nM and an IC50 (curve of first compound, second compound 0.0316 µM) of 696 nM. The IC50 (curve of first compound, second compound 0.1 µM) was 229 nM, the IC50 (curve of first compound, second compound 0.316 µM) was < 31.6 nM and the IC50 (curve of first compound, second compound 1 µM) was < 31.6 nM. It also gave a viability, T/C (second compound 0.00316 µM, first compound 0.0316 µM) of 97.1%, a viability, T/C (second compound 0.00316 µM, first compound 0.1 µM) of 90.5% and a viability, T/C (second compound 0.00316 µM, first compound 0.316 µM) of 80.8%. The viability, T/C (second compound 0.00316 µM, first compound 1 µM) was 71.1%, the viability, T/C (second compound 0.00316 µM, first compound 3.16 µM) was 56.2% and the viability, T/C (second compound 0.00316 µM, first compound 10 µM) was 49.1%. The viability, T/C (second compound 0.01 µM, first compound 0.0316 µM) was 86.1%, the viability, T/C (second compound 0.01 µM, first compound 0.1 µM) was 81.3% and the viability, T/C (second compound 0.01 µM, first compound 0.316 µM) was 71.2%. The viability, T/C (second compound 0.01 µM, first compound 1 µM) was 65.5%, the viability, T/C (second compound 0.01 µM, first compound 3.16 µM) was 45% and the viability, T/C (second compound 0.01 µM, first compound 10 µM) was 41.2%. It also gave a viability, T/C (second compound 0.0316 µM, first compound 0.0316 µM) of 74.9%, a viability, T/C (second compound 0.0316 µM, first compound 0.1 µM) of 70.2% and a viability, T/C (second compound 0.0316 µM, first compound 0.316 µM) of 57.9%. It also gave a viability, T/C (second compound 0.0316 µM, first compound 1 µM) of 47.5%, a viability, T/C (second compound 0.0316 µM, first compound 3.16 µM) of 34.4% and a viability, T/C (second compound 0.0316 µM, first compound 10 µM) of 32%. For the same compound, the viability, T/C (second compound 0.1 µM, first compound 0.0316 µM) was 55.9%, the viability, T/C (second compound 0.1 µM, first compound 0.1 µM) was 55.6% and the viability, T/C (second compound 0.1 µM, first compound 0.316 µM) was 48.2%. It also gave a viability, T/C (second compound 0.1 µM, first compound 1 µM) of 34%, a viability, T/C (second compound 0.1 µM, first compound 3.16 µM) of 26.9% and a viability, T/C (second compound 0.1 µM, first compound 10 µM) of 22%. It also gave a viability, T/C (second compound 0.316 µM, first compound 0.0316 µM) of 45.2%, a viability, T/C (second compound 0.316 µM, first compound 0.1 µM) of 42.1% and a viability, T/C (second compound 0.316 µM, first compound 0.316 µM) of 33%. It also gave a viability, T/C (second compound 0.316 µM, first compound 1 µM) of 27.6%, a viability, T/C (second compound 0.316 µM, first compound 3.16 µM) of 21.7% and a viability, T/C (second compound 0.316 µM, first compound 10 µM) of 18.9%. It also gave a viability, T/C (second compound 1 µM, first compound 0.0316 µM) of 31.7%, a viability, T/C (second compound 1 µM, first compound 0.1 µM) of 33.7% and a viability, T/C (second compound 1 µM, first compound 0.316 µM) of 26.6%. The viability, T/C (second compound 1 µM, first compound 1 µM) was 21%, the viability, T/C (second compound 1 µM, first compound 3.16 µM) was 19.4% and the viability, T/C (second compound 1 µM, first compound 10 µM) was 16.1%.

For `CC(Nc1ccc2c(c1)OCCn1cc(N3C(=O)OCC3C(F)F)nc1-2)C(N)=O` (stereo unspecified), the viability, T/C (compound 0.0316 µM) was 99.5% [middle of 4 runs], the viability, T/C (compound 0.1 µM) was 91.6% [middle of 4 runs] and the viability, T/C (compound 0.316 µM) was 91.2% [middle of 4 runs]. For the same compound, the viability, T/C (compound 1 µM) was 88.9% [middle of 4 runs], the viability, T/C (compound 3.16 µM) was 81.3% [middle of 4 runs] and the viability, T/C (compound 10 µM) was 73.7% [middle of 4 runs]. The IC50 (curve of compound) was > 10000 nM.

For `CC(C)n1nc(-c2ccc3oc(N)nc3c2)c2c(N)ncnc21` + CCn1c(-c2cc(N3CCN(C)CC3)cnc2C(C)OC)c2c3cc(ccc31)-c1csc(n1)CC(NC(=O)C1CC1C)C(=O)N1CCCC(N1)C(=O)OCC(C)(C)C2, the IC50 (curve of first compound, second compound 0.000949 µM) was > 100 nM, the IC50 (curve of first compound, second compound 0.003 µM) was > 100 nM and the IC50 (curve of first compound, second compound 0.00949 µM) was > 100 nM. For the same compound, the IC50 (curve of first compound, second compound 0.03 µM) was 10.1 nM, the IC50 (curve of first compound, second compound 0.0949 µM) was < 0.316 nM and the IC50 (curve of first compound, second compound 0.3 µM) was < 0.316 nM. For the same compound, the viability, T/C (second compound 0.000949 µM, first compound 0.000316 µM) was 98.9%, the viability, T/C (second compound 0.000949 µM, first compound 0.001 µM) was 80.9% and the viability, T/C (second compound 0.000949 µM, first compound 0.00316 µM) was 91.9%. It also gave a viability, T/C (second compound 0.000949 µM, first compound 0.01 µM) of 70.7%, a viability, T/C (second compound 0.000949 µM, first compound 0.0316 µM) of 82.7% and a viability, T/C (second compound 0.000949 µM, first compound 0.1 µM) of 70.7%. It also gave a viability, T/C (second compound 0.003 µM, first compound 0.000316 µM) of 88.4%, a viability, T/C (second compound 0.003 µM, first compound 0.001 µM) of 70.8% and a viability, T/C (second compound 0.003 µM, first compound 0.00316 µM) of 76.1%. The viability, T/C (second compound 0.003 µM, first compound 0.01 µM) was 65.4%, the viability, T/C (second compound 0.003 µM, first compound 0.0316 µM) was 71.2% and the viability, T/C (second compound 0.003 µM, first compound 0.1 µM) was 64%. It also gave a viability, T/C (second compound 0.00949 µM, first compound 0.000316 µM) of 80.7%, a viability, T/C (second compound 0.00949 µM, first compound 0.001 µM) of 60.1% and a viability, T/C (second compound 0.00949 µM, first compound 0.00316 µM) of 63.9%. For the same compound, the viability, T/C (second compound 0.00949 µM, first compound 0.01 µM) was 57.4%, the viability, T/C (second compound 0.00949 µM, first compound 0.0316 µM) was 60.2% and the viability, T/C (second compound 0.00949 µM, first compound 0.1 µM) was 48.1%. For the same compound, the viability, T/C (second compound 0.03 µM, first compound 0.000316 µM) was 44.8%, the viability, T/C (second compound 0.03 µM, first compound 0.001 µM) was 57.9% and the viability, T/C (second compound 0.03 µM, first compound 0.00316 µM) was 46.3%. It also gave a viability, T/C (second compound 0.03 µM, first compound 0.01 µM) of 51.4%, a viability, T/C (second compound 0.03 µM, first compound 0.0316 µM) of 36.9% and a viability, T/C (second compound 0.03 µM, first compound 0.1 µM) of 36.1%. It also gave a viability, T/C (second compound 0.0949 µM, first compound 0.000316 µM) of 19.6%, a viability, T/C (second compound 0.0949 µM, first compound 0.001 µM) of 20.5% and a viability, T/C (second compound 0.0949 µM, first compound 0.00316 µM) of 17.9%. For the same compound, the viability, T/C (second compound 0.0949 µM, first compound 0.01 µM) was 15.8%, the viability, T/C (second compound 0.0949 µM, first compound 0.0316 µM) was 14.6% and the viability, T/C (second compound 0.0949 µM, first compound 0.1 µM) was 11.1%. It also gave a viability, T/C (second compound 0.3 µM, first compound 0.000316 µM) of 9.98%, a viability, T/C (second compound 0.3 µM, first compound 0.001 µM) of 11% and a viability, T/C (second compound 0.3 µM, first compound 0.00316 µM) of 10.3%. The viability, T/C (second compound 0.3 µM, first compound 0.01 µM) was 8.15%, the viability, T/C (second compound 0.3 µM, first compound 0.0316 µM) was 7.88% and the viability, T/C (second compound 0.3 µM, first compound 0.1 µM) was 7.36%.
